Experimental data as given in patent publication US6552010B1 (Genelabs Technologies, Inc., priority 1999, dated 2003).

What was measured:
[1] = Uptake and absorption of DHEA polymorph preparations upon oral administration
[2] = Stability of DHEA polymorph preparations under ambient conditions
[3] = tested on: SLE patients; assay: Clinical trial: responders by window analysis of SLEDAI, SLAM, Patient VAS and KFSS; type: in vivo, human; conditions: for Responders (3% window), number of patients / Responders (3% window), percent / Responders (5% window), number of patients / Responders (5% window), percent / Responders (10% window), number of patients / Responders (10% window), percent: 200 mg DHEA per day orally
Method: For each of the disease activity variables (SLEDAI and SLAM) and constitutional symptom variables (Patient VAS and KFSS), the value of interest for each patient is determined as the difference between a pretreatment baseline value, calculated as the mean of two baseline values, taken prior to any treatment with DHEA), and values taken during treatment, calculated as the mean of all values obtained during on-treatment scheduled visits, e.g., 13, 26, 39, and 52 weeks of treatment.
For each of the variables, an improvement in the variable is defined as either (i) no change in the variable or (ii) a decrease in the variable. Thus, for example, an improvement in a baseline SLEDAI score of 5.00 would be any value 5.00 or less. A change in a variable that represents a worsening of the state or condition is any increase in the measured value.
Thus, for a baseline SLEDAI value of 5.0, and a 3% cap, the maximum allowed increase in SLEDAI value, for classification as a 3% responder is 0.15
The mean baseline scores represent the mean of two value determinations made prior to treatment.
Each group, in turn, can be broken down into three subgroups: (I) total patient population (II) all patients with SLEDAI values greater than 2, and (III) patients having SLEDAI values greater than 2 and currently being treated with prednisone (at dose greater than 2 mg/prednisone /day), where the number of patients in each subgroup is indicated by N in the Table 5.
(§1) Treatment was with 200 mg DHEA per day, administered orally in capsule form, or with a non-drug capsule (placebo). Mean duration of the treatment for each group was somewhat higher for the placebo group (308 days for placebo vs 288.4 days for DHEA, but median durations were almost the identical (362 vs. 359 days, respectively.).
The three columns in the table represent total of the three subgroups for both the placebo and treatment group. The three rows represent responders in which an improvement (no change or decrease in value) in three the three of the four variables was observed and an increase in the fourth variable of no more than 3% (first row), 5% (second row), and 10% (third row) of the pretreatment baseline value.

[4] = tested on: SLE patients; assay: Clinical trial: percent responders (weighted average change from baseline, no clinical deterioration); type: in vivo, human; conditions: 200 mg DHEA per day orally
Method: (§2) Clinical trial results were analyzed for each group (placebo and DHEA-treated) as a whole (“per-protocol”), as well as broken down into three subgroups: all patients with SLEDAI values greater than 2 (“active SLE”), and patients having SLEDAI values greater than 2 and receiving corticosteroids and/or immunosuppressives (“more severe SLE”).
as §1, with “Patients received” for “Treatment was with”, “(308.4” for “(308”
The last three columns of the table show the results of the study for patients experiencing at least one flare during the study.

[5] = tested on: SLE patients; assay: Clinical trial: effect of DHEA treatment on SLE flares; type: in vivo, human; conditions: for Patients with at least one flare, patients/total / Patients with at least one flare, percent: 200 mg DHEA per day orally
Method: A clinical trial was conducted to determine the effect of DHEA treatment on SLE flares. An SLE flare is a significant new clinical manifestation of the disease (i.e., one that was not previously present in the patient or not previously as severe) and/or a clinical intervention. Table 6 identifies the clinical findings or interventions that were scored as flares in the present study. Any patient having at least one of these finding or interventions was scored as having a flare.
as §2
as §1, with “Patients received” for “Treatment was with”, “(308.4” for “(308”
At about 200 days of treatment, incidence of flare is at least about 5% lower in the treated patients, and from this point on, the difference in flare incidence between the treated and placebo patients grows to at least about 10%.

[6] = Group II: All patients with SLEDAI > 2
[7] = Group II: All patients with SLEDAI > 2, N = 132
[8] = Group III: All patients with SLEDAI > 2, Pred > 0
[9] = Group III: All patients with SLEDAI > 2, Pred > 0, N = 73
[10] = Active SLE (SLEDAI > 2 at baseline)
[11] = More Severe SLE (SLEDAI > 2 and receiving corticosteroids and/or immunosuppressives at baseline)

SMILES: C[C@]12CC[C@H](O)CC1=CC[C@@H]1[C@@H]2CC[C@]2(C)C(=O)CC[C@@H]12 [DHEA form I, dehydroepiandrosterone]
- Uptake by the GI tract [1]: good uptake by the GI tract
- Stability [2]: highly stable under ambient conditions

SMILES: C[C@]12CC[C@H](O)CC1=CC[C@@H]1[C@@H]2CC[C@]2(C)C(=O)CC[C@@H]12 [DHEA form II, dehydroepiandrosterone]
- Rate of absorption [1]: rapid rate of absorption (greater than the form I polymorph)
- Uptake by the GI tract [1]: good uptake by the GI tract
- Stability [2]: stable under ambient conditions

SMILES: C[C@]12CC[C@H](O)CC1=CC[C@@H]1[C@@H]2CC[C@]2(C)C(=O)CC[C@@H]12 [DHEA, dehydroepiandrosterone]
- Improvement over placebo, responders (3% window) ([3]; Group I: All patients): 39.8%
- Improvement over placebo, responders (5% window) ([3]; Group I: All patients): 32.1%
- Improvement over placebo, responders (10% window) ([3]; Group I: All patients): 38.0%
- Responders (3% window), number of patients ([3]; Group I: All patients, N = 170): 77
- Responders (3% window), percent ([3]; Group I: All patients, N = 170): 45.3%
- Responders (5% window), number of patients ([3]; Group I: All patients, N = 170): 79
- Responders (5% window), percent ([3]; Group I: All patients, N = 170): 46.5%
- Responders (10% window), number of patients ([3]; Group I: All patients, N = 170): 92
- Responders (10% window), percent ([3]; Group I: All patients, N = 170): 54.1%
- Improvement over placebo, responders (3% window) [3, 6]: 54.4%
- Improvement over placebo, responders (5% window) [3, 6]: 47.1%
- Improvement over placebo, responders (10% window) [3, 6]: 51.1%
- Responders (3% window), number of patients [3, 7]: 72
- Responders (3% window), percent [3, 7]: 54.5%
- Responders (5% window), number of patients [3, 7]: 73
- Responders (5% window), percent [3, 7]: 55.3%
- Responders (10% window), number of patients [3, 7]: 84
- Responders (10% window), percent [3, 7]: 63.6%
- Improvement over placebo, responders (3% window) [3, 8]: 64.3%
- Improvement over placebo, responders (5% window) [3, 8]: 68.6%
- Improvement over placebo, responders (10% window) [3, 8]: 82.2%
- Responders (3% window), number of patients [3, 9]: 39
- Responders (3% window), percent [3, 9]: 53.4%
- Responders (5% window), number of patients [3, 9]: 40
- Responders (5% window), percent [3, 9]: 54.8%
- Responders (10% window), number of patients [3, 9]: 45
- Responders (10% window), percent [3, 9]: 61.6%
- Responders, patients/total [4, 10]: (87/132)
- Responders, percent [4, 10]: 66%
- Responders, patients/total [4, 11]: (51/80)
- Responders, percent [4, 11]: 64%
- Responders, patients/total ([4]; Per Protocol population): (99/170)
- Responders, percent ([4]; Per Protocol population): 58%
- Patients with at least one flare, patients/total [5, 10]: (31/132)
- Patients with at least one flare, percent [5, 10]: 24%
- Time of treatment at which reduction of the risk of flare begins ([5]; FIG. 1, active SLE patients, compared to the placebo group): about 85 days
- Incidence of flare lower in treated patients than placebo ([5]; FIG. 1, at about 200 days of treatment): at least 5%
- Difference in flare incidence between treated and placebo patients ([5]; FIG. 1, grows to this after about 200 days of treatment): at least 10%
- Patients with at least one flare, patients/total [5, 11]: (21/80)
- Patients with at least one flare, percent [5, 11]: 26%
- Patients with at least one flare, patients/total ([5]; Per Protocol population): (37/170)
- Patients with at least one flare, percent ([5]; Per Protocol population): 22%
- Effect on occurrence of flares ([5]; Table 8 study, effect increased with severity of disease): reduced the occurrence of flares
